We go through one molecule from patent publication US12011474B2, “Composition comprising a mixture of molecules extracted from Chrysanthellum indicum, Cynara scolymus and Lycium barbarum and use to act on carbohydrate and/or fat metabolism” (VALBIOTIS, priority 2015, dated 2024).

The test system of this assay is db/db mice. Description: Fasting blood glucose in db/db mice. The class given is in vivo. Conditions: same db/db model, separate experiment with younger mice, control group 414 mg/dL.

Each structure is given as a SMILES string.

From the text: The experiments were done on db/db mice.
The experimental time was 9 weeks with a “Run-in” of 1 week followed by 8 weeks of supplementation with the plant extracts and a composition X. The male mice were 10 weeks old at the beginning of treatment.
The experimental assessments in particular pertained to: • The measurement of the serous lipids (total cholesterol, LDL cholesterol, triglycerides); • The evolution of the blood glucose during an oral sensitivity test to insulin. This test consisted of an intraperitoneal injection of insulin (2 U/kg) on an empty stomach. The evolution of the blood glucose in response to the insulin injection was measured in the tail by biopsy just before the injection (t0), then after 30, 60, 90 and 120 minutes. The area under the curve (AUC) was calculated. A decrease in the AUC reflects a better response to the insulin injection, and therefore improved insulin sensitivity. Conversely, an increase in the AUC reflects a lower quality sensitivity to the insulin, and therefore insulin resistance; • The measurement of the fasting blood glucose.
The evaluations presented were done just before the supplementation (t=0) and at the end of supplementation (t=8 weeks).

Take `CN(C)C(=N)N=C(N)N` [metformin]: the Fasting blood glucose was determined as 463 mg/d L and the “Increase of fasting blood glucose versus control group” value is on record as 11%.
